Usually melting point stands for the temperature, or range, at which the solid turns liquid.

Data set [1] relates to Phytophthora infestans. The data set is classed as in vivo. The following applies: 250 ppm spray, tomato seedling 4-leaf stage, 4th day after inoculation; untreated not less than 60%.
The subject of data set [2] is Pseudoperonospora cubensis. Briefly: Controlling effect against cucumber downy mildew (spray on cucumber seedlings, 250 ppm). The following applies: 250 ppm spray, cucumber seedling 1-leaf stage, 7th day after inoculation; untreated 60 to 80%. In kind it is in vivo. Here is the method:
A solution of the compound in acetone was diluted with water to 250 ppm, and the solution was sprayed to the cucumber seedling (breed: Sagamihangbak, two per plastic pot having a diameter of 7.5 cm) at 1-leaf stage in an amount of 10 mL of the compound/pot. After air-drying, the pot was transferred to a moist chamber provided in the greenhouse, and inoculated by spray with a zoosporic suspension of Pseudoperonospora cubensis. On the 7th day after inoculation the infected area rate for the leaves was examined. Evaluation was carried out by the following criteria.
The infected area rate for untreated groups in the examination was 60 to 80%.

Data set [3] deals with Plasmopara viticola. Briefly: Controlling effect against grape downy mildew (leaf disk immersion, 250 ppm). The conditions noted are these: grape leaf disk immersed 3 hours, 10th day after inoculation, untreated 60 to 70%. In kind it is in vivo. How it is done:
The developed leaf of grape seedling (breed: Cabernet Sauvignon) grown in 1/2000 a pot was cut and prepared a leaf disk having a diameter of 32 mm. A solution of the compound in acetone was diluted with water to 250 ppm, and the leaf disk was immersed for 3 hours. The disk was taken from the agent solution, subjected to air-drying, and then inoculated by spray with a zoosporangia suspension of Plasmopara viticola. The test disk was incubated at 18° C. for 12 hours in a light-dark light cycle. On the 10th day after inoculation the infected area rate for the leaf disk was examined. Evaluation was carried out by the following criteria. The infected area rate for the untreated groups in the examination was 60 to 70%.

Data set [4] relates to Pyricularia oryzae. In kind it is in vivo. The following applies: 250 ppm spray, rice plant 4-leaf stage, 7th to 10th days after inoculation; untreated not less than 60.

Turning to `CC(C)[C@@H](CNC(=O)c1cc2ccccc2o1)NC(=O)C(C)(C)NC(=O)OC(C)(C)C`, the melting point turned out to be 140.5 °C.
Take `Cc1ccc(C(=O)NC[C@@H](NC(=O)Oc2ccccc2)C(C)C)cc1` [Comparative Compound, reference compound]: the “Effect: controlling effect against tomato late blight (infected area rate)” value in data set [1] was “C (Infected area rate of not less than 50%)”. The “Effect: controlling effect against cucumber downy mildew (infected area rate)” value in data set [2] is “C (the infected area rate of not less than 50%)”. Further, the “Effect: controlling effect against grape downy mildew (infected area rate)” value in data set [3] is listed as “C (the infected area rate of not less than 50%)”. In data set [4], the “Effect: controlling effect against rice blast disease (number of lesions per pot)” value is given as “A (The number of lesions of less than 5)”.
In turn, `C#CC[C@H](NC(=O)OCC(C)C)C(=O)N[C@H](CNC(=O)c1ccc(C)cc1)C(C)C` [Compound No. 76, N-[2-methyl-1-(S)-[[(4-methylbenzoyl)amino]methyl]propyl]2-(S)-[(2-methylpropyloxycarbonyl)amino]-4-pentynamide] registered a melting point of 215.1 °C. Also, the “Effect: controlling effect against tomato late blight (infected area rate)” value in data set [1] was “A (Infected area rate of less than 5%)”.
Turning to `CC(C)OC(=O)N[C@H](C(=O)N[C@H](CNC(=O)c1ccccc1Cl)C(C)C)C(C)C` [Compound No. 196, N-[1-(S)-[[(2-chlorobenzoyl)amino]methyl]-2-methylpropyl]3-methyl-2-(S)-[(1-methylethyloxycarbonyl)amino]butyramide], the melting point is 196.8 °C. The “Effect: controlling effect against tomato late blight (infected area rate)” value in data set [1] is recorded as “A (Infected area rate of less than 5%)”. The “Effect: controlling effect against cucumber downy mildew (infected area rate)” value in data set [2] is “B (the infected area rate of 5% to less than 50%)”.
Regarding `CC(C)OC(=O)N[C@@H](C)C(=O)N[C@H](CNC(=O)c1cc2ccccc2o1)C(C)C` [Compound No. 599, N-[1-(S)-[[(benzofuran-2-carbonyl)amino]methyl]-2-methylpropyl]2-(S)-[(1-methylethyloxycarbonyl)amino]propionamide], the melting point came to 146.4 °C. The “Effect: controlling effect against tomato late blight (infected area rate)” value in data set [1] is on record as “A (Infected area rate of less than 5%)”. In addition, in data set [2], the “Effect: controlling effect against cucumber downy mildew (infected area rate)” value is “A (the infected area rate of less than 5%)”. Further, in data set [3], the “Effect: controlling effect against grape downy mildew (infected area rate)” value was “A (the infected area rate of less than 5%)”.
The compound `CC(C)[C@@H](CNC(=O)c1cc2ccccc2o1)NC(=O)[C@H](C)NC(=O)OC(C)(C)C` [Compound No. 601, N-[1-(S)-[[(benzofuran-2-carbonyl)amino]methyl]-2-methylpropyl]2-(S)-[(1,1-dimethylethyloxycarbonyl)amino]propionamide] had a melting point of 163.1 °C. Also, in data set [1], the “Effect: controlling effect against tomato late blight (infected area rate)” value is listed as “B (Infected area rate of 5% to less than 50%)”. Besides, in data set [2], the “Effect: controlling effect against cucumber downy mildew (infected area rate)” value was “A (the infected area rate of less than 5%)”. In data set [3], the “Effect: controlling effect against grape downy mildew (infected area rate)” value is “B (the infected area rate of 5% to less than 50%)”.
The matching figures for `CC[C@H](C)[C@@H](CNC(=O)c1ccc2ccccc2n1)NC(=O)[C@@H](NC(=O)OC)C(C)C` [Compound No. 698, N-[1-(S)-[[(quinoline-2-carbonyl)amino]methyl]-2-(S)-methylbutyl]2-(S)-(methyloxycarbonylamino)-3-methylbutyramide]: 174.6 °C, “A (Infected area rate of less than 5%)”, “A (the infected area rate of less than 5%)” and “B (the infected area rate of 5% to less than 50%)”.
On to `CC(C)OC(=O)N[C@H](C(=O)N[C@H](CNC(=O)c1cc2ccccc2o1)C(C)C)C(C)C` [Compound No. 775, N-[2-methyl-1-(S)-[[(benzofuran-2-carbonyl)amino]methyl]propyl][3-methyl-2-(S)-[N-(1-methylethyloxycarbonyl)amino]]butyramide], for which the “Effect: controlling effect against tomato late blight (infected area rate)” value in data set [1] was “A (Infected area rate of less than 5%)”. Further, the “Effect: controlling effect against cucumber downy mildew (infected area rate)” value in data set [2] is listed as “A (the infected area rate of less than 5%)”. For the same compound, the “Effect: controlling effect against grape downy mildew (infected area rate)” value in data set [3] is reported as “A (the infected area rate of less than 5%)”.
For `C=COC(=O)N[C@H](C(=O)N[C@H](CNC(=O)c1cc2ccccc2o1)C(C)C)C(C)C` [Compound No. 782, N-[1-(S)-[[(benzofuran-2-carbonyl)amino]methyl]-2-methylpropyl]3-methyl-2-(S)-[(vinyloxycarbonyl)amino]butyramide], the melting point worked out at 192.7 °C. The “Effect: controlling effect against tomato late blight (infected area rate)” value in data set [1] is listed as “A (Infected area rate of less than 5%)”. In addition, in data set [2], the “Effect: controlling effect against cucumber downy mildew (infected area rate)” value was “A (the infected area rate of less than 5%)”. Moreover, the “Effect: controlling effect against grape downy mildew (infected area rate)” value in data set [3] is reported as “A (the infected area rate of less than 5%)”.
Regarding `CCSC(=O)N[C@H](C(=O)N[C@H](CNC(=O)c1cc2ccccc2o1)C(C)C)C(C)C` [Compound No. 793, N-[1-(S)-[[(benzofuran-2-carbonyl)amino]methyl]-2-methylpropyl][3-methyl-2-(S)-(ethylthiocarbonylamino)]butyramide], the “Effect: controlling effect against tomato late blight (infected area rate)” value in data set [1] is reported as “A (Infected area rate of less than 5%)”. The “Effect: controlling effect against cucumber downy mildew (infected area rate)” value in data set [2] was “A (the infected area rate of less than 5%)”. Further, the “Effect: controlling effect against grape downy mildew (infected area rate)” value in data set [3] is reported as “A (the infected area rate of less than 5%)”.
`CC(C)OC(=O)N[C@H](C(=O)N[C@H](CNC(=O)c1cccc2onnc12)C(C)C)C(C)C` [Compound No. 929, N-[1-(S)-[(benzoxadiazol-4-yl)carbonylaminomethyl]-2-methylpropyl]3-methyl-2-(S)-[(1-methylethyl)oxycarbonylamino]butyramide] came in with a melting point of 242.9 °C. Moreover, the “Effect: controlling effect against tomato late blight (infected area rate)” value in data set [1] is recorded as “A (Infected area rate of less than 5%)”. The “Effect: controlling effect against cucumber downy mildew (infected area rate)” value in data set [2] is on record as “A (the infected area rate of less than 5%)”. Also, the “Effect: controlling effect against grape downy mildew (infected area rate)” value in data set [3] was “B (the infected area rate of 5% to less than 50%)”.
The matching figures for `CC(C)OC(=O)N[C@H](C(=O)N[C@H](CNC(=O)c1cccc(Cl)n1)C(C)C)C(C)C` [Compound No. 953, N-[1-(S)-[[(6-chloropyridine-2-carbonyl)amino]methyl]-2-methylpropyl]3-methyl-2-(S)-[(1-methylethyloxycarbonyl)amino]butyramide]: 204.9 °C, “A (Infected area rate of less than 5%)”, “A (the infected area rate of less than 5%)” and “A (the infected area rate of less than 5%)”.
`CC(C)COC(=O)N[C@H](C(=O)N[C@H](CNC(=O)c1cccs1)C(C)C)C(C)C` [Compound No. 1020, N-[1-(S)-[[(thiophene-2-carbonyl)amino]methyl]-2-methylpropyl]3-methyl-2-(S)-[(2-methylpropyloxycarbonyl)amino]butyramide]: the melting point turned out to be 204.9 °C. Further, in data set [1], the “Effect: controlling effect against tomato late blight (infected area rate)” value is reported as “B (Infected area rate of 5% to less than 50%)”. The “Effect: controlling effect against cucumber downy mildew (infected area rate)” value in data set [2] is reported as “B (the infected area rate of 5% to less than 50%)”.
With `CCC[C@H](NC(=O)OC(C)(C)C)C(=O)N[C@H](CNC(=O)c1ccc(C)cc1)C(C)C` [compound 40, N-[2-methyl-1-(S)-[[(4-methylbenzoyl)amino]methyl]propyl]2-(S)-[(1,1-dimethylethyloxycarbonyl)amino]valeramide], in data set [1], the “Effect: controlling effect against tomato late blight (infected area rate)” value is “A (Infected area rate of less than 5%)”. The “Effect: controlling effect against cucumber downy mildew (infected area rate)” value in data set [2] is given as “A (the infected area rate of less than 5%)”. The “Effect: controlling effect against grape downy mildew (infected area rate)” value in data set [3] was “A (the infected area rate of less than 5%)”.

The values are drawn from patent US20070244153A1 (priority 2004, published 2007).
